Measured values reported in patent publication US9587266B2, “Mutant luciferases” (University of Massachusetts, priority 2011, dated 2017).

Legend:
[1] = target: T1, R218K + L342A luciferase (Photinus pyralis, UniProt P08659, L342A/R218K); format: biochemical
T1 construct: The full firefly (Photinus pyralis) luciferase gene was PCR amplified from pGL3 (Promega); GST (N, cleaved yes); made in house; host or cells: E. coli JM109
Experimental: (§1) Purified mutant luciferases were used in bioluminescence emission and burst kinetics scans. Each purified protein in 20 mM Tris pH 7.6, 0.1 mM EDTA, 1 mM TCEP and 0.4 mg/mL BSA was added to 2× substrate in 20 mM Tris pH 7.6, 0.1 mM EDTA, 8 mM MgSO4, 4 mM ATP, and 1 mM TCEP in a cuvette.
(§2) Luciferase was rapidly injected into a cuvette containing substrate, and the emission from 400-800 nm was recorded in a SPEX FluoroMax-3 fluorimeter with closed excitation slits.

[2] = target: T2, WT luciferase (Photinus pyralis, UniProt P08659); format: biochemical
T2 construct: The full firefly (Photinus pyralis) luciferase gene was PCR amplified from pGL3 (Promega); GST (N, cleaved yes); made in house; host or cells: E. coli JM109
T2 sequence (P08659 whole entry): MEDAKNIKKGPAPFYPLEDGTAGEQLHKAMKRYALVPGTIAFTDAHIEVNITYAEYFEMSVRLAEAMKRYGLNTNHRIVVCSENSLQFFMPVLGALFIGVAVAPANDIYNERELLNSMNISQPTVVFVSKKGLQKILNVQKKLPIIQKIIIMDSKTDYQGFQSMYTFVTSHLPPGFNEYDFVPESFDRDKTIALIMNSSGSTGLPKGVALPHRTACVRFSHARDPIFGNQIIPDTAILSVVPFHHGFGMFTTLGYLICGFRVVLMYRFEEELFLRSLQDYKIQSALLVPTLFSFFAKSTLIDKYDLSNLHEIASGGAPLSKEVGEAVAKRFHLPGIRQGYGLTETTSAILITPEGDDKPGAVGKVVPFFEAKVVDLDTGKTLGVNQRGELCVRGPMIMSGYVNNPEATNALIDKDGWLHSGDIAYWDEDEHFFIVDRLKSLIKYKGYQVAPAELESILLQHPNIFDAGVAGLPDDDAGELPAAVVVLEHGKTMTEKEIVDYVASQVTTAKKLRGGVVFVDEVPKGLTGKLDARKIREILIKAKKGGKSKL
Experimental: as §1, §2

[3] = target: T3, R218K mutant luciferase in live CHO cells (Photinus pyralis, UniProt P08659, R218K); experiment: Intact cell assay, transfected CHO cells; format: cell-based
T3 construct: The full firefly (Photinus pyralis) luciferase gene was PCR amplified from pGL3 (Promega); expressed in transfected cells; host or cells: CHO cells
T3 sequence (P08659 whole entry R218K): as the sequence (P08659 whole entry) above, with R218K counted along it
Experimental: (§3) The mutants were cloned into the BamHI-Not I site of pcDNA 3.1 and transfected into CHO cells for live and lysed cell experiments. CHO-cell transfections were performed using Lipofectamine 2000 in 96-well white tissue culture treated plates (Costar) for intact cell assays, or 6-well plates for lysed cell assays. For intact cells, 0.075 μg DNA/well was transfected. For lysed cells, 2.25 μg DNA/well was transfected and one full 6-well plate was transfected for each mutant. Assays were performed in triplicate 24 hours post-transfection.
(§4) Transfected CHO cells were washed with HBSS and overlaid with 60 μL substrate in HBSS.

[4] = target: T4, T251S mutant luciferase in live CHO cells (Photinus pyralis, UniProt P08659, T251S); experiment: Intact cell assay, transfected CHO cells; format: cell-based
T4 construct: The full firefly (Photinus pyralis) luciferase gene was PCR amplified from pGL3 (Promega); expressed in transfected cells; host or cells: CHO cells
T4 sequence (P08659 whole entry T251S): as the sequence (P08659 whole entry) above, with T251S counted along it
Experimental: as §3, §4

T1 sequence (P08659 whole entry R218K/L342A): as the sequence (P08659 whole entry) above, with R218K, L342A counted along it

Question: Which “Maximum Emission Wavelength of Selected Substrate” value [1] does the source give for `O=C(O)[C@H]1CSC(c2nc3cc4c(cc3s2)NCC4)=N1` [CycLuc1] here?
Answer: Its value is 604 nm.

Question: What about the “Wavelength at Max. Emission” value ([2]; Table 2) of the same molecule?
Answer: The value was 601 nm.

Question: And the “Maximum Emission Wavelength of Selected Substrate” value ([2]; Table 3)?
Answer: The value was 601 nm.

Question: And the “substrate concentrations at which light output was superior to D-luciferin” value [3]?
Answer: Its value is under 30 µM.

Question: And the “substrate concentrations at which light output was superior to D-luciferin” value [4]?
Answer: Its value is under 30 µM.
